Data: patent US10377753B2, “Substituted 4-azaindoles and their use as GluN2B receptor modulators” (Janssen Pharmaceutica NV, priority 2015, dated 2019)

Biological target: cloned human NR1/NR2B ion channels (Homo sapiens (Human), UniProt Q05586+Q13224)
Assay: HNR2BC: effects of test articles on cloned human NR1/NR2B ion channels expressed in mammalian cells (FLIPR calcium flux)
Assay type: cell-based
Conditions: cloned human NR1/NR2B ion channels, Table 5
In short: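 Compounds were added to dye-loaded cells for 5 min with fluorescence monitored for agonism, followed by co-agonists (glutamate ~EC80, glycine 10 μM saturating) for 5 min. Cells stably expressed inducible human NR1/NR2B, and the buffer was pH 7.4. The FLIPR Ca2+ flux signal was normalized against control wells.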

Chain of cloned human NR1/NR2B ion channels (Q13224 27-1484, other chains not shown): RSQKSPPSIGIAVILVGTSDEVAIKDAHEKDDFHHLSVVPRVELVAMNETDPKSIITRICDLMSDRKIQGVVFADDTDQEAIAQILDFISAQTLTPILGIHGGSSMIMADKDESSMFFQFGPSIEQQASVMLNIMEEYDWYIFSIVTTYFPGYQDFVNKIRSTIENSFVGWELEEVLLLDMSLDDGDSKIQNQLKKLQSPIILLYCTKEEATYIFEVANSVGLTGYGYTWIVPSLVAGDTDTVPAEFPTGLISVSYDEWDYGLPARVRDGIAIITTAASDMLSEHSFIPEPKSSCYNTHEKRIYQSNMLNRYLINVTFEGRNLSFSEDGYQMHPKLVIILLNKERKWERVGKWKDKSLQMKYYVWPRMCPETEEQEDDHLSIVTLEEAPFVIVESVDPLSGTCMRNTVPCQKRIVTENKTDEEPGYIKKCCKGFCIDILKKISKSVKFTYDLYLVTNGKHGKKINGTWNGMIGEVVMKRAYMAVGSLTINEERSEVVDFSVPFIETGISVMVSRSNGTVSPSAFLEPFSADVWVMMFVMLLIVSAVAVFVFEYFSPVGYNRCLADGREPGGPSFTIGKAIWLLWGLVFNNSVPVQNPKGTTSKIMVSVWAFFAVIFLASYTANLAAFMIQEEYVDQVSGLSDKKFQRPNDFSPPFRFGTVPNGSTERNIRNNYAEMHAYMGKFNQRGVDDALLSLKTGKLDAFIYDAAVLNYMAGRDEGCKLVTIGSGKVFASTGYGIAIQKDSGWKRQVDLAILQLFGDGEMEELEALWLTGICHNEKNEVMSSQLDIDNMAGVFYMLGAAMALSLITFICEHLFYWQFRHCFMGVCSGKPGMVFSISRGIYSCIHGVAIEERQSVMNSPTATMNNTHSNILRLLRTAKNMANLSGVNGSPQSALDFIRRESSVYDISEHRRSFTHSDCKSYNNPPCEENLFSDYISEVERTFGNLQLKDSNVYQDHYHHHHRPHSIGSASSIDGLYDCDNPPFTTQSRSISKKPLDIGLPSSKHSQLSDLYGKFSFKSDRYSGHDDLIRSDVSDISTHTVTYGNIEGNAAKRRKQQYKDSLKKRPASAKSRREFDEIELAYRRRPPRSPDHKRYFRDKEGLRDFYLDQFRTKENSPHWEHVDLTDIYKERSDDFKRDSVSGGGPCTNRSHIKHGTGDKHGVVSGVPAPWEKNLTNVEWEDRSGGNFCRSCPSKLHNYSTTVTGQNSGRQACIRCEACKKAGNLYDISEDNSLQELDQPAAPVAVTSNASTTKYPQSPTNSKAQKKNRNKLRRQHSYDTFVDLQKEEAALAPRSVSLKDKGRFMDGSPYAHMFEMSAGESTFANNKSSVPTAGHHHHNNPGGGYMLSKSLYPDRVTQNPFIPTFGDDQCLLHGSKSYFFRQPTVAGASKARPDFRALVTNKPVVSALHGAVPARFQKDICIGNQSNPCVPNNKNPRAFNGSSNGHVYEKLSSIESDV

Row | IC50 | SMILES
1 | 39.8 nM | CN(C)C(=O)Cn1cc(F)c2ncc(-c3cccc(F)c3)cc21 [Example 510, 2-[3-Fluoro-6-(3-fluorophenyl)pyrrolo[3,2-b]pyridin-1-yl]-N,N-dimethyl-acetamide]
2 | 50.1 nM | Cc1cccc(-c2cnc3c(Cl)cn(CC(=O)N(C)C)c3c2)c1F [Example 513, 2-[3-Chloro-6-(2-fluoro-3-methyl-phenyl)pyrrolo[3,2-b]pyridin-1-yl]-N,N-dimethyl-acetamide]
3 | 200 nM | CN(C)C(=O)Cn1cc(Cl)c2ncc(-c3ccc(F)c(C(F)(F)F)c3)cc21 [Example 516, 2-[3-Chloro-6-[4-fluoro-3-(trifluoromethyl)phenyl]pyrrolo[3,2-b]pyridin-1-yl]-N,N-dimethyl-acetamide]
4 | 79.4 nM | CN(C)C(=O)Cn1cc(Cl)c2ncc(-c3ccc(F)c(Cl)c3)cc21 [Example 520, 2-[3-Chloro-6-(3-chloro-4-fluoro-phenyl)pyrrolo[3,2-b]pyridin-1-yl]-N,N-dimethyl-acetamide]
5 | 50.1 nM | O=C(Cn1cc(Cl)c2ncc(-c3ccc(F)c(Cl)c3)cc21)N1CCC1 [Example 527, 1-(Azetidin-1-yl)-2-[3-chloro-6-(3-chloro-4-fluoro-phenyl)pyrrolo[3,2-b]pyridin-1-yl]ethanone]
6 | 79.4 nM | O=C(Cn1cc(Cl)c2ncc(-c3cccc(C(F)F)c3)cc21)N1CCC1 [Example 529, 1-(Azetidin-1-yl)-2-[3-chloro-6-[3-(difluoromethyl)phenyl]pyrrolo[3,2-b]pyridin-1-yl]ethanone]
7 | 50.1 nM | CN(C)C(=O)Cn1cc(Cl)c2ncc(-c3cccc(F)c3)cc21 [Example 531, 2-[3-Chloro-6-(3-fluorophenyl)pyrrolo[3,2-b]pyridin-1-yl]-N,N-dimethyl-acetamide]
8 | 50.1 nM | CCc1cccc(-c2cnc3c(Cl)cn(CC(=O)N4CCC4)c3c2)c1 [Example 533, 1-(Azetidin-1-yl)-2-[3-chloro-6-(3-ethylphenyl)pyrrolo[3,2-b]pyridin-1-yl]ethanone]
9 | 31.6 nM | CN(C)C(=O)Cn1cc(Cl)c2ncc(-c3cccc(Cl)c3)cc21 [Example 534, 2-[3-Chloro-6-(3-chlorophenyl)pyrrolo[3,2-b]pyridin-1-yl]-N,N-dimethyl-acetamide]

The remaining lines, values behind:

Row | SMILES | IC50
10 | O=C(Cn1cc(F)c2ncc(-c3ccccc3F)cc21)N1CC(F)C1 [Example 507, 1-(3-Fluoroazetidin-1-yl)-2-[3-fluoro-6-(2-fluorophenyl)pyrrolo[3,2-b]pyridin-1-yl]ethanone] | 20 nM
11 | O=C(Cn1cc(F)c2ncc(-c3ccc(F)c(C(F)(F)F)c3)cc21)N1CC(F)C1 [Example 508, 1-(3-Fluoroazetidin-1-yl)-2-[3-fluoro-6-[4-fluoro-3-(trifluoromethyl)phenyl]pyrrolo[3,2-b]pyridin-1-yl]ethanone] | 126 nM
12 | CN(C)C(=O)Cn1cc(F)c2ncc(-c3cc(F)cc(F)c3)cc21 [Example 509, 2-[6-(3,5-Difluorophenyl)-3-fluoro-pyrrolo[3,2-b]pyridin-1-yl]-N,N-dimethyl-acetamide] | 31.6 nM
13 | CN(C)C(=O)Cn1cc(Cl)c2ncc(-c3ccccc3F)cc21 [Example 512, 2-[3-Chloro-6-(2-fluorophenyl)pyrrolo[3,2-b]pyridin-1-yl]-N,N-dimethyl-acetamide] | 316 nM
14 | CN(C)C(=O)Cn1cc(Cl)c2ncc(-c3ccccc3)cc21 [Example 514, 2-(3-Chloro-6-phenyl-pyrrolo[3,2-b]pyridin-1-yl)-N,N-dimethyl-acetamide] | 126 nM
15 | Cc1cccc(-c2cnc3c(Cl)cn(CC(=O)N(C)C)c3c2)c1 [Example 515, 2-[3-Chloro-6-(m-tolyl)pyrrolo[3,2-b]pyridin-1-yl]-N,N-dimethyl-acetamide] | 100 nM
16 | CN(C)C(=O)Cn1cc(Cl)c2ncc(-c3cccc(C(F)(F)F)c3F)cc21 [Example 517, 2-[3-Chloro-6-[2-fluoro-3-(trifluoromethyl)phenyl]pyrrolo[3,2-b]pyridin-1-yl]-N,N-dimethyl-acetamide] | 100 nM
17 | CN(C)C(=O)Cn1cc(Cl)c2ncc(-c3ccc(F)c(F)c3F)cc21 [Example 518, 2-[3-Chloro-6-(2,3,4-trifluorophenyl)pyrrolo[3,2-b]pyridin-1-yl]-N,N-dimethyl-acetamide] | 63.1 nM
18 | Cc1c(F)ccc(-c2cnc3c(Cl)cn(CC(=O)N(C)C)c3c2)c1F [Example 519, 2-[3-Chloro-6-(2,4-difluoro-3-methyl-phenyl)pyrrolo[3,2-b]pyridin-1-yl]-N,N-dimethyl-acetamide] | 63.1 nM
19 | O=C(Cn1cc(Cl)c2ncc(-c3ccccc3F)cc21)N1CCC1 [Example 521, 1-(Azetidin-1-yl)-2-[3-chloro-6-(2-fluorophenyl)pyrrolo[3,2-b]pyridin-1-yl]ethanone] | 126 nM
20 | Cc1cccc(-c2cnc3c(Cl)cn(CC(=O)N4CCC4)c3c2)c1F [Example 522, 1-(Azetidin-1-yl)-2-[3-chloro-6-(2-fluoro-3-methyl-phenyl)pyrrolo[3,2-b]pyridin-1-yl]ethanone] | 79.4 nM
21 | O=C(Cn1cc(Cl)c2ncc(-c3ccc(F)c(C(F)(F)F)c3)cc21)N1CCC1 [Example 523, 1-(Azetidin-1-yl)-2-[3-chloro-6-[4-fluoro-3-(trifluoromethyl)phenyl]pyrrolo[3,2-b]pyridin-1-yl]ethanone] | 158 nM
22 | O=C(Cn1cc(Cl)c2ncc(-c3cccc(C(F)(F)F)c3F)cc21)N1CCC1 [Example 524, 1-(Azetidin-1-yl)-2-[3-chloro-6-[2-fluoro-3-(trifluoromethyl)phenyl]pyrrolo[3,2-b]pyridin-1-yl]ethanone] | 79.4 nM
23 | Cc1c(F)ccc(-c2cnc3c(Cl)cn(CC(=O)N4CCC4)c3c2)c1F [Example 525, 1-(Azetidin-1-yl)-2-[3-chloro-6-(2,4-difluoro-3-methyl-phenyl)pyrrolo[3,2-b]pyridin-1-yl]ethanone] | 50.1 nM
24 | O=C(Cn1cc(Cl)c2ncc(-c3cccc(Cl)c3)cc21)N1CCC1 [Example 526, 1-(Azetidin-1-yl)-2-[3-chloro-6-(3-chlorophenyl)pyrrolo[3,2-b]pyridin-1-yl]ethanone] | 63.1 nM
25 | O=C(Cn1cc(Cl)c2ncc(-c3cccc(Cl)c3F)cc21)N1CCC1 [Example 528, 1-(Azetidin-1-yl)-2-[3-chloro-6-(3-chloro-2-fluoro-phenyl)pyrrolo[3,2-b]pyridin-1-yl]ethanone] | 39.8 nM
26 | O=C(Cn1cc(Cl)c2ncc(-c3cccc(F)c3)cc21)N1CCC1 [Example 530, 1-(Azetidin-1-yl)-2-[3-chloro-6-(3-fluorophenyl)pyrrolo[3,2-b]pyridin-1-yl]ethanone] | 39.8 nM
27 | O=C(Cn1cc(Cl)c2ncc(-c3cc(F)cc(F)c3)cc21)N1CCC1 [Example 532, 1-(Azetidin-1-yl)-2-[3-chloro-6-(3,5-difluorophenyl)pyrrolo[3,2-b]pyridin-1-yl]ethanone] | 50.1 nM
28 | O=C(Cn1cc(Cl)c2ncc(-c3ccccc3F)cc21)N1CC(F)C1 [Example 535, 2-[3-Chloro-6-(2-fluorophenyl)pyrrolo[3,2-b]pyridin-1-yl]-1-(3-fluoroazetidin-1-yl)ethanone] | 200 nM
29 | Cc1cccc(-c2cnc3c(Cl)cn(CC(=O)N4CC(F)C4)c3c2)c1F [Example 536, 2-[3-Chloro-6-(2-fluoro-3-methyl-phenyl)pyrrolo[3,2-b]pyridin-1-yl]-1-(3-fluoroazetidin-1-yl)ethanone] | 25.1 nM
